For test [1], the target named is three MDR protease variants (M1-M3). The test can be described thus: HIV-1 protease inhibition assay. In kind it is biochemical. The following applies: against all three MDR protease variants (M1-M3).
The test system of test [2] is wild-type and drug-resistant HIV-1 strains. The test can be described thus: Antiviral assays, all viruses tested summarised. In kind it is cell-based.
Where [3] appears, read: against all the viruses tested (wild-type and MDR HIV-1).

`CC[C@H](C)CN(C[C@@H](O)[C@H](Cc1ccccc1)NC(=O)OCCNC(=O)C(Cl)Cl)S(=O)(=O)c1ccc(OC)cc1` [13c, 2-(2,2-dichloroacetamido)ethyl (2S,3R)-3-hydroxy-4-(4-methoxy-N-((S)-2-methylbutyl)phenylsulfonamido)-1-phenylbutan-2-ylcarbamate]: the “MDR Ki” value in test [1] is listed as “excellent potencies in the low nM ranges”.

In the case of `CC[C@H](C)CN(C[C@@H](O)[C@H](Cc1ccccc1)NC(=O)OCCN1CCNC1=O)S(=O)(=O)c1ccc2ncsc2c1` [14g, 2-(2-oxoimidazolidin-1-yl)ethyl ((2S,3R)-3-hydroxy-4-(N-((S)-2-methylbutyl)benzo[d]thiazole-6-sulfonamido)-1-phenylbutan-2-yl)carbamate], in test [2] (setting [3]), the EC50 entry is listed as “modest antiviral potency”.

`CC[C@H](C)CN(C[C@@H](O)[C@H](Cc1ccccc1)NC(=O)OC[C@@H]1CCC(=O)N1)S(=O)(=O)c1ccc2ncsc2c1` [14j, ((S)-5-oxopyrrolidin-2-yl)methyl ((2S,3R)-3-hydroxy-4-(N-((S)-2-methylbutyl)benzo[d]thiazole-6-sulfonamido)-1-phenylbutan-2-yl)carbamate]: in test [1], the “MDR Ki” value is “excellent potencies in the low nM ranges”. In test [2] (Human immunodeficiency virus 1), the EC50 was 15.5 to 35.6 nM.

In the case of `CC[C@H](C)CN(C[C@@H](O)[C@H](Cc1ccccc1)NC(=O)OC[C@@H](C)C(=O)OC)S(=O)(=O)c1ccc(OC)cc1` [13f, (R)-methyl 3-((((2S,3R)-3-hydroxy-4-(4-methoxy-N-((S)-2-methylbutyl)phenylsulfonamido)-1-phenylbutan-2-yl)carbamoyl)oxy)-2-methylpropanoate], the “MDR Ki” value in test [1] was “excellent potencies in the low nM ranges”. Also, the EC50 entry in test [2] (setting [3]) was “modest antiviral potency”.

In the case of `CC[C@H](C)CN(C[C@@H](O)[C@H](Cc1ccccc1)NC(=O)OC[C@@H]1CCC(=O)N1)S(=O)(=O)c1ccc(OC)cc1` [13j, ((S)-5-oxopyrrolidin-2-yl)methyl ((2S,3R)-3-hydroxy-4-(4-methoxy-N-((S)-2-methylbutyl)phenylsulfonamido)-1-phenylbutan-2-yl)carbamate], the “MDR Ki” value in test [1] is “excellent potencies in the low nM ranges”. Also, in test [2] (setting [3]), the EC50 result is “modest antiviral potency”.

One may read the EC50 as the midpoint of the concentration-response curve.
